According to publication PMC11864979, “First-in-class ultralong-target-residence-time p38α inhibitors as a mitosis-targeted therapy for colorectal cancer” (Nature Cancer, 2025):
Where two headings read alike, the source gives them in different places.

Legend:
Test in all cases: selectivity profiling in a panel of 340 wild-type kinases (Reaction Biology Europe)
Assay type in all cases: binding
[1] = target: T1, 340 wild-type kinases (Homo sapiens, UniProt O75116)
T1 construct: purchased Reaction Biology Europe

[2] = target: T2, 340 wild-type kinases (Homo sapiens, UniProt P52333)
T2 construct: purchased Reaction Biology Europe
T2 sequence (P52333 1-1124): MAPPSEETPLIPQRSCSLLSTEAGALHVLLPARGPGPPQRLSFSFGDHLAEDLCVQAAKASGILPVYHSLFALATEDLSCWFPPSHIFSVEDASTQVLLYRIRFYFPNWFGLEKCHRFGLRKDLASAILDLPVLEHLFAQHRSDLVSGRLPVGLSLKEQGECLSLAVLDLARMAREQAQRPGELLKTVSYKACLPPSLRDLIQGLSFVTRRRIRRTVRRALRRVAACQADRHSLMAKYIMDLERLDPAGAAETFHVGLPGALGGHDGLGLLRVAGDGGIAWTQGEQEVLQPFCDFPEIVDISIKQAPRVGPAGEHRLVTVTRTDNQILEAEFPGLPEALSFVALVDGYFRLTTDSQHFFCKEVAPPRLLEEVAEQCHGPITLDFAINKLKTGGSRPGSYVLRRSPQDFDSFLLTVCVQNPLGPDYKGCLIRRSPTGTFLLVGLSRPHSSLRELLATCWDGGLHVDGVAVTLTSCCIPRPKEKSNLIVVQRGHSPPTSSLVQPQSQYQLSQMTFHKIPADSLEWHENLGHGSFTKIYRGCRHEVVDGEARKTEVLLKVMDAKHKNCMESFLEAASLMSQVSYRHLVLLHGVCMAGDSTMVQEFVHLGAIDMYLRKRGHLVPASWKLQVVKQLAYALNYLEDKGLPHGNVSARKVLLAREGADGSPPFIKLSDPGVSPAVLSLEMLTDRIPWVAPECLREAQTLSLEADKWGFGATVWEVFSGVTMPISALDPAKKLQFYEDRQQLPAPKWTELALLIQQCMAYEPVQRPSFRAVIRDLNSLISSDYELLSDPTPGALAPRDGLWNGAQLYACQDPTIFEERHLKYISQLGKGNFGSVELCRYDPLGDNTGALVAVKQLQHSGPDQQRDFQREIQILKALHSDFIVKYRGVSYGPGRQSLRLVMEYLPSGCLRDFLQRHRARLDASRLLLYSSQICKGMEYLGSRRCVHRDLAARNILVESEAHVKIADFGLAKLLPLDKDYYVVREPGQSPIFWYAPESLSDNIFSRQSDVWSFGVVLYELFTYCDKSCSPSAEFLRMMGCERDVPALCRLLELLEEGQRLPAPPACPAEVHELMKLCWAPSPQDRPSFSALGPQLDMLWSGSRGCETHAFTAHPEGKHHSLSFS

[3] = target: T3, 340 wild-type kinases (Homo sapiens, UniProt P53350)
T3 construct: purchased Reaction Biology Europe

[4] = target: T4, 340 wild-type kinases (Homo sapiens, UniProt Q08881)
T4 construct: purchased Reaction Biology Europe
T4 sequence (Q08881 1-620): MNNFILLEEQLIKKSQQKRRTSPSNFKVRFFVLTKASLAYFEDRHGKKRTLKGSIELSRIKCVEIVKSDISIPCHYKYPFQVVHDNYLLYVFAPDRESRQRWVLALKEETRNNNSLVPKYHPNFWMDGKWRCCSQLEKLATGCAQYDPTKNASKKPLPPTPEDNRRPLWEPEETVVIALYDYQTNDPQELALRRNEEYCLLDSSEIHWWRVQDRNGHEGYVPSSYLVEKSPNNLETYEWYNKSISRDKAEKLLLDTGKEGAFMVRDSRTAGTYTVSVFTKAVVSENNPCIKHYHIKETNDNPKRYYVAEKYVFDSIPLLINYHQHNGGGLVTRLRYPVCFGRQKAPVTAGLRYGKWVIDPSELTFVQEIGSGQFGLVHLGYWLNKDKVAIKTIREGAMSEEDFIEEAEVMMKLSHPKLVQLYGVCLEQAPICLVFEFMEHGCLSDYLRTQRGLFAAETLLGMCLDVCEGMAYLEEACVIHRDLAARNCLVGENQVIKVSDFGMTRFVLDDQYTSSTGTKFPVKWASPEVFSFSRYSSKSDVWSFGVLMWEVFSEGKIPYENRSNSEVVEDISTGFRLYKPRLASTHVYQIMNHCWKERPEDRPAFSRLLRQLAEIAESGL

[5] = target: T5, 340 wild-type kinases (Homo sapiens, UniProt Q15303)
T5 construct: purchased Reaction Biology Europe

[6] = target: T6, 340 wild-type kinases (Homo sapiens, UniProt Q16566)
T6 construct: purchased Reaction Biology Europe
T6 sequence (Q16566 1-473): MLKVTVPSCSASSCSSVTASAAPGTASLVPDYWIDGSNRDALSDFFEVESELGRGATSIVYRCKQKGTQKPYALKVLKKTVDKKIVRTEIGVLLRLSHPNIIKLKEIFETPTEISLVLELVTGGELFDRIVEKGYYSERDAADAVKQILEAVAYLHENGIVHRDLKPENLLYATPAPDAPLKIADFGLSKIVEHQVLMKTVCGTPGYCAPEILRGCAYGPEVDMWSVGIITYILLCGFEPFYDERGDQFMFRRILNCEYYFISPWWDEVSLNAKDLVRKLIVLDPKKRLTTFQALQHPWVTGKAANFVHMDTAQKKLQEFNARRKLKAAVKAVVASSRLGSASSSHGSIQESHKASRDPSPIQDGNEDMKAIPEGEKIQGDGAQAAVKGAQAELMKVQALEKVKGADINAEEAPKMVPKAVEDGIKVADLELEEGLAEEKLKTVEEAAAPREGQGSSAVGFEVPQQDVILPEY

[7] = target: T7, 340 wild-type kinases (Homo sapiens, UniProt Q9P0L2)
T7 construct: purchased Reaction Biology Europe
T7 sequence (Q9P0L2 whole entry): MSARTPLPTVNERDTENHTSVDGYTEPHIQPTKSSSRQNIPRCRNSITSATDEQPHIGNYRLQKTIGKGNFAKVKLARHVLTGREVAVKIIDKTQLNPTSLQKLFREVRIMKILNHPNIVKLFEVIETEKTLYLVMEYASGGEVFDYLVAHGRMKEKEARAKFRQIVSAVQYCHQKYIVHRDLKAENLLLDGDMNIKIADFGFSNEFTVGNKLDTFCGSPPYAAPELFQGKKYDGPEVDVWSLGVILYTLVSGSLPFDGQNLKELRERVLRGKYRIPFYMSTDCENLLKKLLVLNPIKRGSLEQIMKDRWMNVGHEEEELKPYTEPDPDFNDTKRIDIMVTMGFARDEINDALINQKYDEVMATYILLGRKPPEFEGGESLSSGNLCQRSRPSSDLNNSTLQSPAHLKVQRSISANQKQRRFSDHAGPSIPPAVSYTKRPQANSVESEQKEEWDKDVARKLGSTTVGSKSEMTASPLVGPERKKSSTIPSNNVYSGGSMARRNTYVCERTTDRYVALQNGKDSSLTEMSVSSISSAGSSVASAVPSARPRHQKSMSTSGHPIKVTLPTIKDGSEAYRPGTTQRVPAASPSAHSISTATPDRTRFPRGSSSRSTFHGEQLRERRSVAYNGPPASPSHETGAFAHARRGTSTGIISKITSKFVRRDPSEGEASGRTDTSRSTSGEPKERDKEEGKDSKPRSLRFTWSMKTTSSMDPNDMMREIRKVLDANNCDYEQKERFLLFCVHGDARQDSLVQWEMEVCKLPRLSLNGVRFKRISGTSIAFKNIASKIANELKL

T5 sequence (Q15303 26-1308): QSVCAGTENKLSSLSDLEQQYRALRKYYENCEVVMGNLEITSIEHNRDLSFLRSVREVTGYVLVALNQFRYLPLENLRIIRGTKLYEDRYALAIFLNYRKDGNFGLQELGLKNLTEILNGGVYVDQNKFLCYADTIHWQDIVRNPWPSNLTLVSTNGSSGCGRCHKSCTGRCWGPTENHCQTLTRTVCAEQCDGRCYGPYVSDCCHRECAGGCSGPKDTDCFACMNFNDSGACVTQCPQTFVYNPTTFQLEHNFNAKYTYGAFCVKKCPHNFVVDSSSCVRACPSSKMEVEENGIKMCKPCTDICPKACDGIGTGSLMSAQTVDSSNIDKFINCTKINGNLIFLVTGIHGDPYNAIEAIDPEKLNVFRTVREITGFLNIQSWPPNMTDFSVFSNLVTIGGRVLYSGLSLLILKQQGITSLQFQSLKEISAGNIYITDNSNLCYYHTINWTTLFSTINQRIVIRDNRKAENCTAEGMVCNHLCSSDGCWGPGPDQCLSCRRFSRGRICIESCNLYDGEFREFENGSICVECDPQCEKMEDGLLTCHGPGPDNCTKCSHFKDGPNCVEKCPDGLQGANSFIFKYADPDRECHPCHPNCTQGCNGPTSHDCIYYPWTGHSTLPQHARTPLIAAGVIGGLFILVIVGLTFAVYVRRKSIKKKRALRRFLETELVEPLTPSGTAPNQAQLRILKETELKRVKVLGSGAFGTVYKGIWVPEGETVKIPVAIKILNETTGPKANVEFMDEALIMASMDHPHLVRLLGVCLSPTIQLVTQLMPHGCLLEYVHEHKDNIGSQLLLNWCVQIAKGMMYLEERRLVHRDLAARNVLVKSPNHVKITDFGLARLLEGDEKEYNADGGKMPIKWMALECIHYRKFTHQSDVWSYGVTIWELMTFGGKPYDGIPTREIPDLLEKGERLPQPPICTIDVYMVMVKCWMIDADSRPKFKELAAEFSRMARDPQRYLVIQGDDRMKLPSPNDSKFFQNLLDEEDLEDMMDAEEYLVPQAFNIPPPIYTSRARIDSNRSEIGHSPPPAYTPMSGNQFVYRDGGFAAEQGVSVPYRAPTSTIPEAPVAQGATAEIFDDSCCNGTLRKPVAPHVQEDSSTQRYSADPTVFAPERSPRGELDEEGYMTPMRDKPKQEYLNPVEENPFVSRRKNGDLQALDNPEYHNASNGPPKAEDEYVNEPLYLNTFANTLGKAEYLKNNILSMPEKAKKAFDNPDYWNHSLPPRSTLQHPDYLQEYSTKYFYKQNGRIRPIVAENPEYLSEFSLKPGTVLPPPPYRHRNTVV
T3 sequence (P53350 whole entry): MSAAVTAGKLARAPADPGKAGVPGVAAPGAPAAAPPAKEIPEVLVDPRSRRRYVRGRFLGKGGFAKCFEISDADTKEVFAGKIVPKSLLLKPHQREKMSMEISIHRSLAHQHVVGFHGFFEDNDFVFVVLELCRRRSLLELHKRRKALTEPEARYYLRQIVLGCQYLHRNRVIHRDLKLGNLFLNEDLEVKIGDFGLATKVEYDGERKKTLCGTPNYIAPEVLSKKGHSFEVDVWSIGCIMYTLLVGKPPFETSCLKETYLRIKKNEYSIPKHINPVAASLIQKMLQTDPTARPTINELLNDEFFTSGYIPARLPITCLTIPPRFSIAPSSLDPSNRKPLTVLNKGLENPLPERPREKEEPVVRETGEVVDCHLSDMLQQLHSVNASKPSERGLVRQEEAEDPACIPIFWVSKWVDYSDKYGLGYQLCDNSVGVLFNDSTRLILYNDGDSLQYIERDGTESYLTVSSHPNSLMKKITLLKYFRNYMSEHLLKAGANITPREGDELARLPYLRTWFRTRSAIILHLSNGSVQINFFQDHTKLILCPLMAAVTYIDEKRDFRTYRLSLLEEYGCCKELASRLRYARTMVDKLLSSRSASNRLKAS
T1 sequence (O75116 whole entry): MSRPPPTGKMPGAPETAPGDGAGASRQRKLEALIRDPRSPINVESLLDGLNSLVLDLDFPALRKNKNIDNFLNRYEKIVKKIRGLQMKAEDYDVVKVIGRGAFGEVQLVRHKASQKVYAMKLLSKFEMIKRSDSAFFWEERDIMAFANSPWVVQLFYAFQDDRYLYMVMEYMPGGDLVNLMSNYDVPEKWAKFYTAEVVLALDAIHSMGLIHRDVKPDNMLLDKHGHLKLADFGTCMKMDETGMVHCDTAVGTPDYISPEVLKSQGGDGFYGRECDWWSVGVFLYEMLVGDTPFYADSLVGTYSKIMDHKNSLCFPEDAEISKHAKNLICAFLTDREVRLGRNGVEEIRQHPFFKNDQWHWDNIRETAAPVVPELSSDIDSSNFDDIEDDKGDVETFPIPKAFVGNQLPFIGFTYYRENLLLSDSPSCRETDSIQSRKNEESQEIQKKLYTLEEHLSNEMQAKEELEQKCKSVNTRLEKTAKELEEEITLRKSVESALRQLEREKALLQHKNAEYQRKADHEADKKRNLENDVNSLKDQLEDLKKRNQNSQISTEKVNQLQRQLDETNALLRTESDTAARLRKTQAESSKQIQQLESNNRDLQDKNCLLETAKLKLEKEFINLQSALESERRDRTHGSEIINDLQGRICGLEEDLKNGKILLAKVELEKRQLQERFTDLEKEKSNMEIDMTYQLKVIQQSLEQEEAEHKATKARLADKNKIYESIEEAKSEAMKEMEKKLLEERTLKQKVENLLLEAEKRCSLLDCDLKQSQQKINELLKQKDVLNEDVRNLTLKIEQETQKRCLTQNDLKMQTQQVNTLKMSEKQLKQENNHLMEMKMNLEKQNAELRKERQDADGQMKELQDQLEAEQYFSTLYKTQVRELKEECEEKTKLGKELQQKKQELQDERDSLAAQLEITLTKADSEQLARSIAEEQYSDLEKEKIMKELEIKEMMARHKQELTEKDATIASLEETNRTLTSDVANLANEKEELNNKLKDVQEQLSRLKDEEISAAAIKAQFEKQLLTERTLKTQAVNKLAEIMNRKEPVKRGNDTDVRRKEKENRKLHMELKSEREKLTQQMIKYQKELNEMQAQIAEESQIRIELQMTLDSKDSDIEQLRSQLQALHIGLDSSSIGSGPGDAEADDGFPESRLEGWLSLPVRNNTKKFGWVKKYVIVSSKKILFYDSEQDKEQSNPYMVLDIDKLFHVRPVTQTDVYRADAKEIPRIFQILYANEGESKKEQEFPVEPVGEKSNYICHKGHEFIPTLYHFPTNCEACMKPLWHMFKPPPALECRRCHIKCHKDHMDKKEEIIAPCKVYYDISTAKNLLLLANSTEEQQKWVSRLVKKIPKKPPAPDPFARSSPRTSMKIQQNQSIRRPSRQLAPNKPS

Question: How did the remaining activity at 0.2 µM ([1]; 0.2 µM 2015, read-out: ROCK2 residual activity) turn out when `CNC(=O)c1ccc2c(c1)C(=O)c1ccc(Nc3ccc(F)c(NC(=O)C4CC4)c3)cc1CC2` [Compound 2015] was run?
Answer: 89%

Question: And the remaining activity at 1 µM ([1]; 1 µM 2015, read-out: ROCK2 residual activity)?
Answer: 86.3%

Question: And the remaining activity at 0.2 µM ([1]; ROCK2, 0.2 µM, read-out: residual activity)?
Answer: 89%

Question: And the remaining activity at 1 µM ([1]; ROCK2, 1 µM, read-out: residual activity)?
Answer: 86.3%

Question: What about the remaining activity at 0.2 µM ([2]; 0.2 µM 2015, read-out: JAK3 residual activity) of the same molecule?
Answer: 105%

Question: What about the remaining activity at 1 µM ([2]; 1 µM 2015, read-out: JAK3 residual activity) of the same molecule?
Answer: 110%

Question: What about the remaining activity at 0.2 µM ([2]; JAK3, 0.2 µM, read-out: residual activity) of the same molecule?
Answer: 105%

Question: And the remaining activity at 1 µM ([2]; JAK3, 1 µM, read-out: residual activity)?
Answer: 110%

Question: And the remaining activity at 0.2 µM ([3]; 0.2 µM 2015, read-out: PLK1 residual activity)?
Answer: 94.2%

Question: And the remaining activity at 1 µM ([3]; 1 µM 2015, read-out: PLK1 residual activity)?
Answer: 96.3%

Question: And the remaining activity at 0.2 µM ([3]; PLK1, 0.2 µM, read-out: residual activity)?
Answer: 94.2%

Question: And the remaining activity at 1 µM ([3]; PLK1, 1 µM, read-out: residual activity)?
Answer: 96.3%

Question: And the remaining activity at 0.2 µM ([4]; 0.2 µM 2015, read-out: ITK residual activity)?
Answer: 89.4%

Question: And the remaining activity at 1 µM ([4]; 1 µM 2015, read-out: ITK residual activity)?
Answer: 87%

Question: And the remaining activity at 0.2 µM ([4]; ITK, 0.2 µM, read-out: residual activity)?
Answer: 89.4%

Question: What about the remaining activity at 1 µM ([4]; ITK, 1 µM, read-out: residual activity) of the same molecule?
Answer: 87%

Question: And the remaining activity at 0.2 µM ([5]; 0.2 µM 2015, read-out: ERBB4 residual activity)?
Answer: 120%

Question: What about the remaining activity at 1 µM ([5]; 1 µM 2015, read-out: ERBB4 residual activity) of the same molecule?
Answer: 101%

Question: What about the remaining activity at 0.2 µM ([5]; ERBB4, 0.2 µM, read-out: residual activity) of the same molecule?
Answer: 120%

Question: And the remaining activity at 1 µM ([5]; ERBB4, 1 µM, read-out: residual activity)?
Answer: 101%

Question: And the remaining activity at 0.2 µM ([6]; 0.2 µM 2015, read-out: CAMK4 residual activity)?
Answer: 92.7%

Question: And the remaining activity at 1 µM ([6]; 1 µM 2015, read-out: CAMK4 residual activity)?
Answer: 94.1%

Question: What about the remaining activity at 0.2 µM ([6]; CAMK4, 0.2 µM, read-out: residual activity) of the same molecule?
Answer: 92.7%

Question: What about the remaining activity at 1 µM ([6]; CAMK4, 1 µM, read-out: residual activity) of the same molecule?
Answer: 94.2%

Question: And the remaining activity at 0.2 µM ([7]; 0.2 µM 2015, read-out: MARK1 residual activity)?
Answer: 97.9%

Question: And the remaining activity at 1 µM ([7]; 1 µM 2015, read-out: MARK1 residual activity)?
Answer: 95.7%

Question: And the remaining activity at 0.2 µM ([7]; MARK1, 0.2 µM, read-out: residual activity)?
Answer: 97.9%

Question: What about the remaining activity at 1 µM ([7]; MARK1, 1 µM, read-out: residual activity) of the same molecule?
Answer: 95.7%
